The values below come from US4954513A, “Leukotriene antagonists” (SmithKline Beecham Corporation, priority 1988, dated 1990).

This assay deals with T1, leukotriene induced contraction of guinea pig tracheal tissues (Cavia porcellus, UniProt Q2NNR5).
T1 construct: Guinea pig (adult male albino Hartley strain) tracheal spiral strips; from tissue; host or cells: guinea pig (adult male albino Hartley) tracheal spiral strips
T1 sequence (Q2NNR5 1-340): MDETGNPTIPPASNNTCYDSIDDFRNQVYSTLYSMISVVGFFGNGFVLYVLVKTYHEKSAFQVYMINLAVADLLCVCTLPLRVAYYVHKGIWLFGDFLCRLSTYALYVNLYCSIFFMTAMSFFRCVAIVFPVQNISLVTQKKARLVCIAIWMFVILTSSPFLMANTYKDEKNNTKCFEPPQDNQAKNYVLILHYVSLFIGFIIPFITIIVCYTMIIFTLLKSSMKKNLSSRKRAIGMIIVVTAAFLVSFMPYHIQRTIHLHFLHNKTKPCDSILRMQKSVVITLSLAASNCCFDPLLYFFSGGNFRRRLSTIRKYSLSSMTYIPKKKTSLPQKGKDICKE
Kind of assay: Inhibition of leukotriene (LTD4) induced contraction of guinea pig tracheal spiral strips in vitro. The assay is classed as cell-based. Conditions: LTD4 concentration-response on guinea pig tracheal strips, 30 min pretreatment with test compound, meclofenamic acid 1uM; EC30 shift; current average data; read-out: -LogKB (converted). On the procedure: The leukotriene antagonist activity of the compounds of this invention is measured by the ability of the compounds to inhibit the leukotriene induced contraction of guinea pig tracheal tissues in vitro. The following methodology was employed: In vitro: Guinea pig (adult male albino Hartley strain) tracheal spiral strips of approximate dimensions 2 to 3 mm cross sectional width and 3.5 cm length were bathed in modified Krebs buffer in jacketed 10 ml tissue bath and continuously aerated with 95% O2 /5% CO2. The tissues were connected via silk suture to force displacement transducers for recording isometric tension. The tissues were equilibrated for 1 hr., pretreated for 15 minutes with meclofenamic acid (1uM) to remove intrinsic prostaglandin responses, and then pretreated for an additional 30 minutes with either the test compound or vehicle control. A cumulative concentration-response curve for LTD4 on triplicate tissues was generated by successive increases in the bath concentration of the LTD4. In order to minimize intertissue variability, the contractions elicited by LTD4 were standardized as a percentage of the maximum response obtained to a reference agonist, carbachol (10uM). Calculations: The averages of the triplicate LTD4 concentration response curves both in the presence and absence of the test compound were plotted on log graph paper. The concentration of LTD4 needed to elicit 30% of the contraction elicited by carbachol was measured and defined as the EC30. The -log KB value for the test compound was determined by the following equations: [formula] […] The antagonist activity of representative compounds of this invention is listed in Table I. The -log KB values were calculated from the above protocol. Where compounds were tested more than once, the -log KB values given here represent the current average data.
Turning to `O=C(CCSC(c1ccccc1CCCCCCCCc1ccccc1)C(O)C(=O)O)NS(=O)(=O)c1ccccc1` (stereo not drawn) [2-Hydroxy-3-[2-(N-phenylsulfonylcarbamoylethyl)thio]-3-[2-(8 phenyloctyl)phenyl]propanoic acid], the Kd is 39.8 nM. The figure for `O=C(O)CCSC(CC(=O)NS(=O)(=O)c1ccccc1)c1ccccc1CCCCCCCCc1ccccc1` (stereo not drawn) [Compound 2, N-[3-(Carboxyethylthio)-3-[2-(8-phenyloctyl)phenyl]]propionylbenzenesulfonamide] is 316 nM; for `CS(=O)(=O)NC(=O)CC(SCCC(=O)O)c1ccccc1CCCCCCCCc1ccccc1` (stereo not drawn) [Compound 3, N-[3-(carboxyethylthio)-3-[2 (8 phenyloctyl)phenyl]propionyl]methanesulfonamide] it is 398 nM.
